This is an account of results in publication PMC2764408 (Biochemistry, 2008).

Common to all, as to type: binding
For assay [1], the target named is T1, monomeric sarcosine oxidase (MSOX) (Bacillus sp. B-0618, UniProt P40859, K266R).
T1 sequence (P40859 2-390 K266R): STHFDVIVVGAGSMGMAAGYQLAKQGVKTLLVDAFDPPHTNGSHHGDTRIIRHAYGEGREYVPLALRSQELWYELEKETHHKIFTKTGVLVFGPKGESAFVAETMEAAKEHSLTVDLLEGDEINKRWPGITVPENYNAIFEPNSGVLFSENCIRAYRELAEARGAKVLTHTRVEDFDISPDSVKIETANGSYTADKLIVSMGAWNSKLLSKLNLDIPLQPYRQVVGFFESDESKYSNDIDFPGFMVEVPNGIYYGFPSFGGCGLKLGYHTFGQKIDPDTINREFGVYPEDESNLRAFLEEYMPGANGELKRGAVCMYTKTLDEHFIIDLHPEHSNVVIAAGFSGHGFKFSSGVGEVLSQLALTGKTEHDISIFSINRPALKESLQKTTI
Kind of assay: absorption spectral titration of charge transfer band.

The target of assay [2] is T2, monomeric sarcosine oxidase (MSOX) (Bacillus sp. B-0618, UniProt P40859, K266M).
T2 sequence (P40859 2-390 K266M): T1 sequence (P40859 2-390 K266R)
The assay is described as above.

Assay [3] deals with T1, monomeric sarcosine oxidase (MSOX). Description: stopped-flow diode array, initial charge transfer absorbance.
Assay [4] deals with T2, monomeric sarcosine oxidase (MSOX). Described as above.

As to `CSCC(=O)O` [methylthioacetate], the Kd in assay [1] turned out to be 6.9 ± 0.1 mM; in assay [2], 13.3 ± 0.3 mM.
Consider `CNCC(=O)O` [sarcosine, N-methylglycine], for which the Kd in assay [3] amounted to 34 ± 1 mM; in assay [4] it was 58 ± 10 mM.

As usually defined, the Kd is the equilibrium constant for the complex coming apart. Higher therefore signals a looser complex.
